Activity calls are given as the source filed them. How the calls were made is not given here.
Test system: CCRIS mutagenicity, Ames/micronucleus/aberration tests
Assay: CCRIS mutagenicity studies
[1] = Test System: AMES SALMONELLA TYPHIMURIUM, Strain/Indicator: TA98, Metabolic Activation: NONE, Method: PREINCUBATION
[2] = Test System: AMES SALMONELLA TYPHIMURIUM, Strain/Indicator: TA100, Metabolic Activation: NONE, Method: PREINCUBATION
[3] = Test System: AMES SALMONELLA TYPHIMURIUM, Strain/Indicator: TA1535, Metabolic Activation: NONE, Method: PREINCUBATION

Nc1cccc2cccc(S(=O)(=O)O)c12
mutagenic call [1]: inactive; negative | mutagenic call (Test System: AMES SALMONELLA TYPHIMURIUM, Strain/Indicator: TA98, Metabolic Activation: RAT LIVER S-9, PHENOBARBITAL AND BETA-NAPHTHOFLAVONE, Method: PREINCUBATION): active; positive | mutagenic call [2]: inactive; negative | mutagenic call (Test System: AMES SALMONELLA TYPHIMURIUM, Strain/Indicator: TA100, Metabolic Activation: RAT LIVER S-9, PHENOBARBITAL AND BETA-NAPHTHOFLAVONE, Method: PREINCUBATION): inactive; negative | mutagenic call [3]: inactive; negative | mutagenic call (Test System: AMES SALMONELLA TYPHIMURIUM, Strain/Indicator: TA1535, Metabolic Activation: RAT LIVER S-9, PHENOBARBITAL AND BETA-NAPHTHOFLAVONE, Method: PREINCUBATION): inactive; negative | mutagenic call (Test System: AMES SALMONELLA TYPHIMURIUM, Strain/Indicator: TA1537, Metabolic Activation: NONE, Method: PREINCUBATION): inactive; negative | mutagenic call (Test System: AMES SALMONELLA TYPHIMURIUM, Strain/Indicator: TA1537, Metabolic Activation: RAT LIVER S-9, PHENOBARBITAL AND BETA-NAPHTHOFLAVONE, Method: PREINCUBATION): active; positive | mutagenic call (Test System: AMES SALMONELLA TYPHIMURIUM, Strain/Indicator: TA1538, Metabolic Activation: NONE, Method: PREINCUBATION): inactive; negative | mutagenic call (Test System: AMES SALMONELLA TYPHIMURIUM, Strain/Indicator: TA1538, Metabolic Activation: RAT LIVER S-9, PHENOBARBITAL AND BETA-NAPHTHOFLAVONE, Method: PREINCUBATION): active; positive | mutagenic call (Test System: E.COLI, Strain/Indicator: WP2UVRA, Metabolic Activation: NONE, Method: PREINCUBATION): inactive; negative | mutagenic call (Test System: E.COLI, Strain/Indicator: WP2UVRA, Metabolic Activation: RAT LIVER S-9, PHENOBARBITAL AND BETA-NAPHTHOFLAVONE, Method: PREINCUBATION): inactive; negative

C1CCC(C2(C3CCCCC3)COCCOCCOCCOCCOCCOCCO2)CC1
mutagenic call (Test System: AMES SALMONELLA TYPHIMURIUM, Strain/Indicator: TA98, Metabolic Activation: NONE, Method: STANDARD PLATE): inactive; negative | mutagenic call (Test System: AMES SALMONELLA TYPHIMURIUM, Strain/Indicator: TA98, Metabolic Activation: RAT, LIVER, S-9, AROCLOR 1254, Method: STANDARD PLATE): inactive; negative | mutagenic call (Test System: AMES SALMONELLA TYPHIMURIUM, Strain/Indicator: TA100, Metabolic Activation: NONE, Method: STANDARD PLATE): inactive; negative | mutagenic call (Test System: AMES SALMONELLA TYPHIMURIUM, Strain/Indicator: TA100, Metabolic Activation: RAT, LIVER, S-9, AROCLOR 1254, Method: STANDARD PLATE): inactive; negative | mutagenic call (Test System: AMES SALMONELLA TYPHIMURIUM, Strain/Indicator: TA1530, Metabolic Activation: NONE, Method: STANDARD PLATE): inactive; negative | mutagenic call (Test System: AMES SALMONELLA TYPHIMURIUM, Strain/Indicator: TA1530, Metabolic Activation: RAT, LIVER, S-9, AROCLOR 1254, Method: STANDARD PLATE): inactive; negative | mutagenic call (Test System: AMES SALMONELLA TYPHIMURIUM, Strain/Indicator: TA1537, Metabolic Activation: NONE, Method: STANDARD PLATE): inactive; negative | mutagenic call (Test System: AMES SALMONELLA TYPHIMURIUM, Strain/Indicator: TA1537, Metabolic Activation: RAT, LIVER, S-9, AROCLOR 1254, Method: STANDARD PLATE): inactive; negative

CCCCN(N=O)/C(N)=N/[N+](=O)[O-]
mutagenic call [2]: active; positive | mutagenic call (Test System: AMES SALMONELLA TYPHIMURIUM, Strain/Indicator: TA100, Metabolic Activation: RAT, LIVER, S-9, KC500 OR PHENOBARBITAL, Method: LIQUID SUSPENSION): active; positive | mutagenic call [3]: active; positive | mutagenic call (Test System: AMES SALMONELLA TYPHIMURIUM, Strain/Indicator: TA1535, Metabolic Activation: NONE, Method: STANDARD PLATE): active; positive | mutagenic call (Test System: AMES SALMONELLA TYPHIMURIUM, Strain/Indicator: TA1535, Metabolic Activation: RAT, LIVER, S-9, KC500 OR PHENOBARBITAL, Method: LIQUID SUSPENSION): active; positive | mutagenic call (Test System: AMES SALMONELLA TYPHIMURIUM, Strain/Indicator: YG7104, Metabolic Activation: NONE, Method: PREINCUBATION): active; positive | mutagenic call (Test System: AMES SALMONELLA TYPHIMURIUM, Strain/Indicator: YG7108, Metabolic Activation: NONE, Method: PREINCUBATION): active; positive | mutagenic call (Test System: AMES SALMONELLA TYPHIMURIUM, Strain/Indicator: YG7112, Metabolic Activation: NONE, Method: PREINCUBATION): active; positive | mutagenic call (Test System: AMES SALMONELLA TYPHIMURIUM, Strain/Indicator: YG7113, Metabolic Activation: NONE, Method: PREINCUBATION): active; positive

COC(=O)/C(C#N)=C/c1ccc([N+](=O)[O-])o1
mutagenic call [1]: active; positive

CCC(=C(CC)c1ccc(O)cc1)c1ccc(O)cc1
mutagenic call (End Point: IN VITRO MICRONUCLEUS, Test System: CHL/IU CELLS, Metabolic Activation: NONE): active; positive

Source: PubChem BioAssay AID1259407 (Chemical Carcinogenesis Research Information System (CCRIS), 2018)
